Publication PMC11368737, “Effects of three flavonoids on the metabolism of lenvatinib” (Frontiers in Pharmacology, 2024)
Like-named read-outs stand apart in the source and are kept apart here.

How the values were obtained:
[1] = test system: CYP3A4; assay: in vitro; settings: rat; for IC50 at 30 min: microsomes
Experimental: (§2) To determine the enzymatic kinetic parameter (the Michaelis constant, Km) of lenvatinib in RLM and HLM, we established a 200 μL enzyme reaction system, which included 2–100 μM lenvatinib, 0.3 mg/mL RLM or HLM, 0.1 M Tris-HCl, and 1 mM NADPH. […] The mixed probe substrates were added to an incubation mixture containing 0.3 mg/mL RLM, 0.1 M PBS, and 1 mM NADPH. First, the mixture without NADPH was pre-incubated at 37°C for 5 min, and then 10 μL NADPH was added to start the reaction. After incubation for 30 min, the samples were immediately freezed to −80°C to terminate the reaction. About 20 min later, 300 μL acetonitrile and 10 μL regorafenib (200 ng/mL) as IS were added to precipitate the protein. When the samples were fully vortexed for 2 min and completely mixed, the mixture was centrifuged for 10 min at 13,000 rpm. In the end, each supernatant was detected and analyzed by UPLC-MS/MS.
(§3) To explore the ability of three flavonoids to inhibit lenvatinib metabolism in vitro, we measured the half-maximal inhibitory concentration (IC50) of luteolin, myricetin, and fisetin, respectively. The 200 μL incubation system consisted of Tris-HCl (0.1 M), RLM or HLM (0.3 mg/mL), NADPH (1 mM), lenvatinib (23.5 μM in RLM or 16.9 μM in HLM) and three flavonoids (0, 0.01, 0.1, 1, 10, 25, 50 and 100 μM). To evaluate the effects of three flavonoids on CYP1A2, CYP2B6 and CYP3A4 activity in RLM, the specific CYP isoform probe mixture was incubated with a single inhibitor and the specific CYP isoform probe was used at a concentration equal to or slightly below its corresponding Km value ([Dinger et al., 2014]). […] Finally, the samples were processed as mentioned above.

[2] = test system: CYP3A4
Experimental: as §2, §3

[3] = test system: lenvatinib metabolism (M1 formation) in HLM; assay: Inhibition of lenvatinib metabolism (M1 formation) by flavonoids in human liver microsomes; assay type: in vitro ADME; settings: human; for IC50 at 30 min: 0.3 mg/mL HLM, lenvatinib 16.9 μM, mean ± S.D., read-out: IC50 to inhibit the metabolism of lenvatinib in HLM
[4] = target: T1, CYP1A2 (Rattus norvegicus, UniProt P04799); assay: CYP1A2 activity in RLM, mixed probe method (melatonin); settings: for inhibition at 30 min, 100 µM: rat
T1 sequence (P04799 1-513): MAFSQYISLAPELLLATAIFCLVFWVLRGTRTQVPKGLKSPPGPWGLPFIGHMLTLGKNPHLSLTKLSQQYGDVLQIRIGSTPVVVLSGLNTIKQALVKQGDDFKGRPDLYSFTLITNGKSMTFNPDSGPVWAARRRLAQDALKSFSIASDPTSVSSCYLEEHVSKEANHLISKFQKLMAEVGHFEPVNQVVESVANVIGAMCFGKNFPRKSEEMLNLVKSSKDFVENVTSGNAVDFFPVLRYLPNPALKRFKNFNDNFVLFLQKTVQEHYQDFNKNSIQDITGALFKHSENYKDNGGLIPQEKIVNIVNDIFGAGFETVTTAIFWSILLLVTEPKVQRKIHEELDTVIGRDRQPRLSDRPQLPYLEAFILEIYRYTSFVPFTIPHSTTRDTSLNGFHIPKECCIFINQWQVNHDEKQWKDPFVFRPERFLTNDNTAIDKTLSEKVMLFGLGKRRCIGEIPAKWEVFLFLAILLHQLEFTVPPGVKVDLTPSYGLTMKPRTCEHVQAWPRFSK
Experimental: as §2, §3

[5] = test system: CYP2B6; assay: CYP2B6 activity in RLM, mixed probe method (bupropion); settings: for IC50 at 30 min: rat
[6] = test system: HLM; assay: Michaelis-Menten kinetics of lenvatinib in HLM; assay type: in vitro ADME, human; settings: HLM vs RLM
Experimental: (§4) To determine the enzymatic kinetic parameter (the Michaelis constant, Km) of lenvatinib in RLM and HLM, we established a 200 μL enzyme reaction system, which included 2–100 μM lenvatinib, 0.3 mg/mL RLM or HLM, 0.1 M Tris-HCl, and 1 mM NADPH. […] First, the mixture without NADPH was pre-incubated at 37°C for 5 min, and then 10 μL NADPH was added to start the reaction. After incubation for 30 min, the samples were immediately freezed to −80°C to terminate the reaction. About 20 min later, 300 μL acetonitrile and 10 μL regorafenib (200 ng/mL) as IS were added to precipitate the protein. When the samples were fully vortexed for 2 min and completely mixed, the mixture was centrifuged for 10 min at 13,000 rpm. In the end, each supernatant was detected and analyzed by UPLC-MS/MS.
(§5) The experimental data were expressed as mean ± standard deviation (mean ± S.D.). Through GraphPad Prism 9.5 software, the Michaelis-Menten curves of lenvatinb in RLM and HLM were drawn based on the Michaelis-Menten analysis curve fitting program in nonlinear regression analysis, and the log(inhibitor) vs normalized response mode was applied to acquire the corresponding IC50 curve diagram. […]

[7] = Michaelis-Menten kinetics of lenvatinib in HLM; assay type: in vitro ADME, human; settings: human, human liver microsomes; 2–100 μM lenvatinib, 0.3 mg/mL HLM
Experimental: as §4, §5

[8] = Metabolic stability of lenvatinib in RLM with or without flavonoids; assay type: in vitro ADME; settings: rat, rat liver microsomes, 1.0 μM lenvatinib, 0.3 mg/mL RLM, with or without flavonoid, n = 3
Experimental: Using the UPLC-MS/MS technique, metabolic stability tests were carried out to monitor any discernible drop in lenvatinib concentration in the RLM matrix ([Shang et al., 2021]). 1.0 μM lenvatinib was incubated with 0.3 mg/mL RLM and 1 mM NADPH in 0.1 M Tris-HCl buffer until a final volume of 0.2 mL was reached. NADPH was introduced following a 5 min pre-incubation period, and the reaction was stopped at various intervals of 0, 5, 10, 45, 60, and 90 min. Similarly, three flavonoids were added to the above incubation system to study the effects of the three flavonoids on the metabolic stability of lenvatinib. The post-treatment method was same as the above enzyme reaction. The metabolic stability curve for lenvatinib was constructed from the obtained data.
The relative content of lenvatinib in the RLM matrix was calculated after stopping the metabolic reaction at different time periods. The relative content was equal to the percentage of the remaining lenvatinib relative to zero time (representing 100%). […] The in vitro half-life (t1/2) was obtained using the equation: t1/2 = 0.693/k; V (mL/mg) = volume of incubation ([Kaci et al., 2023])/protein in the incubation ([Rumgay et al., 2022]); intrinsic clearance (CLint) (mL/min/mg protein) = V × 0.693/t1/2. […] The metabolic stability results of three flavonoids co-incubated with lenvatinib, including t1/2 and clearance were shown in Table 3.

[9] = Pharmacokinetics of lenvatinib in SD rats with or without luteolin or myricetin; settings: Sprague-Dawley, rat, in vivo, po, 1.2 mg/kg
Experimental: Fifteen SD rats were randomly divided into three groups (n = 5): Group A, lenvatinib (1.2 mg/kg, p. o.) ([Cui et al., 2021]); Group B, lenvatinib (1.2 mg/kg, p. o.) + luteolin (30 mg/kg, p. o.) ([Chen et al., 2010]); Group C, lenvatinib (1.2 mg/kg, p. o.) + myricetin (50 mg/kg, p. o.) ([Lan et al., 2017]). Three drugs were suspended in 0.5% carboxymethylcellulose sodium salt (CMC-Na) solution, respectively, prepared when used. Before the formal experiment, SD rats fasted for 12 h to avoid the effect of food intake on drug absorption, but were free to drink water. At the beginning of the experiment, group A was given equal volumes of 0.5% CMC-Na solution, while group B and C were received luteolin and myricetin, respectively. After 30 min, all three groups were gavaged with a single dose of 1.2 mg/kg lenvatinib. At 1, 1.5, 2, 3, 4, 6, 8, 12, and 24 h after lenvatinib administration, blood samples were collected from the tail vein into a 1.5 mL EP tube treated with heparin, respectively. The 50 μL plasma supernatant was precisely extracted and put into a new 1.5 mL EP tube after centrifugation at 8,000 rpm for 10 min. […] Finally, the liquid supernatant was taken to UPLC-MS/MS to detect the concentration of the analytes.

[10] = parameters: method as in Xia et al., 2023; settings: co-administered azole; ref Xia et al., 2023; cited from earlier work
[11] = test system: lenvatinib metabolism in human liver microsomes (HLM); assay: Inhibition of lenvatinib metabolism (M1 formation) by flavonoids in human liver microsomes; assay type: in vitro ADME; settings: for Inhibitory type on lenvatinib metabolism in HLM: Lineweaver-Burk plot
[12] = test system: lenvatinib metabolism in rat liver microsomes (RLM); assay: Inhibition of lenvatinib metabolism (M1 formation) by flavonoids in rat liver microsomes; settings: Lineweaver-Burk plot
Text: (§1) The experimental data were expressed as mean ± standard deviation (mean ± S.D.). Through GraphPad Prism 9.5 software, the Michaelis-Menten curves of lenvatinb in RLM and HLM were drawn based on the Michaelis-Menten analysis curve fitting program in nonlinear regression analysis, and the log(inhibitor) vs normalized response mode was applied to acquire the corresponding IC50 curve diagram. The Lineweaver-Burk plot was got by the Lineweaver-Burk double reciprocal mode, and its subsidiary plot was drawn on the slope (Km/Vmax vs. inhibitor concentration) and y-intercept (1/Vmax vs. inhibitor concentration) of the drawn line. Besides, the mean plasma concentration-time curve of lenvatinib was plotted based on the pharmacokinetic data. Drug and Statistics (DAS) software (version 3.0 software, Mathematical Pharmacology Professional Committee of China, Shanghai, China) with non-compartment model analyzes was used to obtain the corresponding pharmacokinetic parameters. SPSS (version 24.0; SPSS Inc., Chicago, IL, United States of America) with one-way ANOVA was used to compare the difference between the combination and the single group, respectively. p < 0.05, it was considered statistically significant.

[13] = test system: CYP1A2; parameters: method as in Cao et al., 2017; Shi et al., 2024; settings: ref Cao et al., 2017; Shi et al., 2024; read-out: IC50 on CYP1A2 in vitro; cited from earlier work
[14] = test system: CYP1A2; parameters: method as in Vavrová et al., 2022; Liu et al., 2023; settings: CYP1A2 selective inhibitor; ref Vavrová et al., 2022; Liu et al., 2023; cited from earlier work
[15] = parameters: method as in Hong et al., 2014; settings: rats; ref Hong et al., 2014; cited from earlier work
[16] = test system: lenvatinib metabolism (M1 formation) in RLM; assay: Inhibition of lenvatinib metabolism (M1 formation) by flavonoids in rat liver microsomes; settings: rat
Text: as §1

[17] = test system: tofacitinib metabolism in RLM; parameters: method as in Ye et al., 2024; settings: ref Ye et al., 2024, cited from earlier work
[18] = test system: tofacitinib metabolism in HLM; parameters: method as in Ye et al., 2024; settings: ref Ye et al., 2024, cited from earlier work
[19] = substrate: COc1ccc2[nH]cc(CCNC(C)=O)c2c1; assay: not read; settings: other: melatonin, mixed method, RLM; 37.0 °C
Experimental: as §2, §3

[20] = human liver microsomes, probe lenvatinib 16.9 μM
[21] = rat liver microsomes, probe bupropion (8.0 μM)

O=c1c(O)c(-c2ccc(O)c(O)c2)oc2cc(O)ccc12 [fisetin]
IC50 at 30 min [1]: 74.2 ± 2.16 µM
Degree of inhibition on CYP3A4 ([2]; RLM): weak inhibition
IC50 at 30 min [3, 20]: 21.2 ± 0.93 µM
IC50 [4]: 5.89 ± 0.13 µM
inhibition at 30 min, 100 µM ([4]; microsomes): 93.6%
IC50 at 30 min [5, 21]: 29.4 ± 1.36 µM

Cc1ncc2n1-c1ccc(Cl)cc1C(c1ccccc1F)=NC2 [midazolam, reference compound]
Km at 30 min [1]: 1.9 ± 0.13 µM

COc1cc2nccc(Oc3ccc(NC(=O)NC4CC4)c(Cl)c3)c2cc1C(N)=O [lenvatinib, Lenvatinib]
Km in HLM lower than in RLM [6]: 28.1%
Km at 30 min [7]: 16.9 ± 2.42 µM
microsomal CLint at 1 μM [8]: 2.3 ± 0.2 µL/min/mg
half-life at 1 μM ([8]; read-out: in vitro t1/2 of lenvatinib): 17 ± 1.55 h
AUC(0-inf) [9]: 1410 ng·h/mL
AUC(0-t) [9]: 1260 ng·h/mL
CL/F [9]: 14.3 mL/min/kg
Cmax [9]: 147 ± 20.4 ng/mL
Tmax [9]: 5.6 ± 0.89 h
t1/2z of lenvatinib [9]: 4.14 ± 1.57 h

C[C@@H](c1nc(-c2ccc(C#N)cc2)cs1)[C@](O)(Cn1cncn1)c1cc(F)ccc1F [isavuconazole]
Improvement of plasma exposure to lenvatinib [10]: 50.20%

CC(=O)N1CCN(c2ccc(OCC3COC(Cn4ccnc4)(c4ccc(Cl)cc4Cl)O3)cc2)CC1 (stereo not drawn) [ketoconazole]
Improvement of plasma exposure to lenvatinib [10]: 3.01 times

O=c1cc(-c2ccc(O)c(O)c2)oc2cc(O)cc(O)c12 [luteolin]
IC50 at 30 min [1]: 49.4 ± 2.45 µM
Degree of inhibition on CYP3A4 ([2]; microsomes): weak inhibition
Inhibitory type on lenvatinib metabolism in HLM [11]: mixed
Inhibitory type on lenvatinib metabolism in HLM ([11]; listed as Luteolin): mixed type of non-competitive and competitive inhibition
α for inhibition of lenvatinib metabolism in HLM ([11]; αKi/Ki): 1.34
IC50 at 30 min [3, 20]: 6.89 ± 0.43 µM
Ki at 30 min ([3]; human liver microsomes, probe lenvatinib 4.23, 8.45, 16.90, 33.80 μM, Lineweaver-Burk secondary plot, n = 3): 14.3 ± 4.85 µM
IC50 [4]: 0.81 ± 0.07 µM
Degree of inhibition on CYP1A2 ([4]; RLM, 100 μM): strong inhibition
inhibition at 30 min, 100 µM ([4]; rat liver microsomes, probe melatonin (30.0 μM)): 96.9%
Inhibitory type on lenvatinib metabolism in RLM [12]: un-competitive
Inhibitory type on lenvatinib metabolism in RLM ([12]; listed as Luteolin): un-competitive inhibition
IC50 [13]: < 10 µM
Degree of inhibition on CYP2B6 ([5]; RLM): moderate inhibition
IC50 at 30 min [5, 21]: 18.9 ± 1.33 µM

Cc1nc2c([nH]1)c(=O)n(C)c(=O)n2Cc1ccco1 [Furafylline]
Inhibitory effect on the formation of O-desmethyl lenvatinib [14]: 37%

O=c1c(O)c(-c2cc(O)c(O)c(O)c2)oc2cc(O)cc(O)c12 [myricetin]
IC50 at 30 min [1]: 5.11 ± 0.11 µM
Absolute bioavailability [15]: less than 10%
IC50 at 30 min [3]: 12.3 ± 1.21 µM
IC50 [4]: 5.61 ± 0.25 µM
inhibition at 30 min, 100 µM ([4]; microsomes): 98.1%
IC50 at 30 min [16]: 11.2 ± 0.81 µM
IC50 at 30 min ([5]; microsomes, IC50 for CYP2B6 in RLM, probe 8.0 μM bupropion, mixed probes, 0.3 mg/mL RLM): > 20 µM
IC50 ([5]; read-out: IC50 for CYP2B6 in RLM, probe 8.0 μM bupropion, mixed probes, 0.3 mg/mL RLM): 25.6 ± 1.73 µM
Inhibition type on tofacitinib in RLM [17]: non-competitively
IC50 ([17]; read-out: IC50 for inhibition of tofacitinib in RLM): 9.27 µM
Inhibition type on tofacitinib in HLM [18]: non-competitively
IC50 ([18]; read-out: IC50 for inhibition of tofacitinib in HLM): 2.35 µM

B1: CYP1A2 (Rattus norvegicus) (protein)
chain: MAFSQYISLAPELLLATAIFCLVFWVLRGTRTQVPKGLKSPPGPWGLPFIGHMLTLGKNPHLSLTKLSQQYGDVLQIRIGSTPVVVLSGLNTIKQALVKQGDDFKGRPDLYSFTLITNGKSMTFNPDSGPVWAARRRLAQDALKSFSIASDPTSVSSCYLEEHVSKEANHLISKFQKLMAEVGHFEPVNQVVESVANVIGAMCFGKNFPRKSEEMLNLVKSSKDFVENVTSGNAVDFFPVLRYLPNPALKRFKNFNDNFVLFLQKTVQEHYQDFNKNSIQDITGALFKHSENYKDNGGLIPQEKIVNIVNDIFGAGFETVTTAIFWSILLLVTEPKVQRKIHEELDTVIGRDRQPRLSDRPQLPYLEAFILEIYRYTSFVPFTIPHSTTRDTSLNGFHIPKECCIFINQWQVNHDEKQWKDPFVFRPERFLTNDNTAIDKTLSEKVMLFGLGKRRCIGEIPAKWEVFLFLAILLHQLEFTVPPGVKVDLTPSYGLTMKPRTCEHVQAWPRFSK
Km [19]: 32.39 ± 0.58 µM
